US7625943B2, “5-alkyl-7-alkylcarbonate-isoflavone ester and related method” (priority 2004, dated 2009)

Key:
duration of action = type: in vivo; conditions: estimated; ratio to 5-methyl-7-methoxy-isoflavone
From the text: One limitation of known prodrugs is that, once they are transformed into the parent drug, they are broken down in the body, and particularly in the liver. This breakdown reduces in vivo concentration and bioavailability of the drug. This breakdown effect has been observed with 5-methyl-7-methoxy-isoflavone. In the presently preferred embodiments of the invention, however, the compounds are less prone to such breakdown in the body relative to many known prodrug-type compounds. This in many instances is attributable to the alkylcarbonate ester promoiety, which makes the compound more resistant to hydrolysis and other reactions that inhibit or destroy them in the body. In vivo concentrations thus can be maintained more readily, and bioavailability of the parent isoflavone can be improved. It has been estimated that the duration of action for 5-methyl-7-ethylcarbonate-isoflavone may be twice that of 5-methyl-7-methoxy-isoflavone.

[1] = administered to a human; estimated; cited from earlier work
[2] = after transformation into the parent drug; cited from earlier work

**Q.** For `CCOC(=O)Oc1cc(C)c2c(=O)c(-c3ccccc3)coc2c1` [5-methyl-7-ethylcarbonate-isoflavone], which “duration of action relative to 5-methyl-7-methoxy-isoflavone” value (duration of action) is on record?
**A.** The value was “twice”.

**Q.** With `COc1cc(C)c2c(=O)c(-c3ccccc3)coc2c1` [5-methyl-7-methoxy-isoflavone] as the compound, how does the “proportion of administered prodrug converted in vivo to 7-hydroxy-5-methyl-isoflavone” value [1] read?
**A.** Its value is “approximately 50%”.

**Q.** What about the “breakdown effect in the body (liver) reducing in vivo concentration and bioavailability” value [2] of the same compound?
**A.** The value was “observed”.
